# Experimental data from US6737383B1, “Herbicidal oxadiazolidines” (priority 1999, dated 2004).
# Key:
# wheat = assay: Test B pre/postemergence wheat; format: in vivo, Triticum aestivum
# Method in brief: (§1)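 Response is a visual 0-to-10 score relative to untreated plants, where 0 means no effect and 10 means complete control, taken twelve to sixteen days after application. Treatments went onto soil at planting and onto foliage of 1- to 4-leaf plants, using a surfactant-containing non-phytotoxic solvent.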
# morningglory = assay: Test B pre/postemergence morningglory; format: in vivo, Ipomoea hederacea
# Method in brief: as §1
# velvetleaf = assay: Test B pre/postemergence velvetleaf; format: in vivo, Abutilon theophrasti
# Method in brief: as §1
# soybean = assay: Test B pre/postemergence soybean; format: in vivo, Glycine max
# Method in brief: as §1
# pigweed = assay: Test B pre/postemergence pigweed; format: in vivo, Amaranthus retroflexus
# Method in brief: as §1
# cocklebur = assay: Test B pre/postemergence cocklebur; format: in vivo, Xanthium strumarium
# Method in brief: as §1
# smallflower flatsedge = assay: Test B flood test smallflower flatsedge; format: in vivo, Cyperus difformis
# Method in brief: (§2)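 Read-out is a visual response score from 0 (no effect) to 10 (complete control), assigned by comparison with untreated controls. Treatment was applied at the 2-leaf stage, and plants stayed in the greenhouse for twelve to sixteen days before scoring.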
# surinam grass = assay: Test B pre/postemergence surinam grass; format: in vivo, Brachiaria decumbens
# Method in brief: as §1
# wild oat = assay: Test B pre/postemergence wild oat; format: in vivo, Avena fatua
# Method in brief: as §1
# rice = assay: Test B flood test rice; format: in vivo, Oryza sativa
# Method in brief: as §2
# giant foxtail = assay: Test B pre/postemergence giant foxtail; format: in vivo, Setaria faberii
# Method in brief: as §1
# bedstraw = assay: Test B pre/postemergence bedstraw; format: in vivo, Galium aparine
# Method in brief: as §1
# blackgrass = assay: Test B pre/postemergence blackgrass; format: in vivo, Alopecurus myosuroides
# Method in brief: as §1
# bamyardgrass = assay: Test B flood test barnyardgrass; format: in vivo, Echinochloa crus-galli
# Method in brief: as §2
# crabgrass = assay: Test B pre/postemergence crabgrass; format: in vivo, Digitaria sanguinalis
# Method in brief: as §1
# corn = assay: Test B pre/postemergence corn; format: in vivo, Zea mays
# Method in brief: as §1
# [1] = Preemergence, Rate 250 g/ha, scale of 0 to 10 where 0 is no effect and 10 is complete control
# [2] = Preemergence, Rate 500 g/ha, scale of 0 to 10 where 0 is no effect and 10 is complete control
# [3] = Rate 62 g/ha, Postemergence, scale 0 to 10 (0 no effect, 10 complete control)
# [4] = Rate 125 g/ha, Postemergence, scale of 0 to 10 where 0 is no effect and 10 is complete control
# [5] = Rate 125 g/ha, Preemergence, scale of 0 to 10 where 0 is no effect and 10 is complete control
# [6] = Rate 250 g/ha, Postemergence, scale of 0 to 10 where 0 is no effect and 10 is complete control
# [7] = Rate 500 g/ha, Postemergence, scale 0 to 10, 0 no effect, 10 complete control
# [8] = Preemergence, Rate 62 g/ha, scale of 0 to 10 where 0 is no effect and 10 is complete control
# [9] = Rate 62 g/ha, headed Pre-emergence (flood test species), scale 0 to 10 (0 no effect, 10 complete control)
# [10] = Rate 125 g/ha, Pre-emergence, flood test species, scale 0 to 10 where 0 is no effect and 10 is complete control
# [11] = Rate 250 g/ha, Pre-emergence, flood-test species, scale 0 to 10, 0 is no effect, 10 is complete control
# [12] = Rate 500 g/ha, Pre-emergence, flood test species, scale 0 to 10 (0 no effect, 10 complete control)
smiles,measurement,setting,value
CC(C)N(C(=O)n1oc(=O)n(CC(C)(C)C)c1=O)c1ccc(F)cc1F [Compound 277],Wheat plant response rating,wheat; [1],0
same,"Plant response rating, Wheat",wheat; [2],4
same,Wheat plant response rating,wheat; [3],0
same,Wheat plant response rating,wheat; [4],0
same,Wheat plant response rating,wheat; [5],0
same,"Plant response rating, Wheat",wheat; [6],0
same,Wheat plant response rating,wheat; [7],0
same,Morningglory plant response rating,morningglory; [8],0
same,Morningglory plant response rating,morningglory; [1],0
same,"Plant response rating, Morningglory",morningglory; [2],0
same,Morningglory plant response rating,morningglory; [3],7
same,Morningglory plant response rating,morningglory; [4],8
same,Morningglory plant response rating,morningglory; [5],0
same,"Plant response rating, Morningglory",morningglory; [6],8
same,Morningglory plant response rating,morningglory; [7],9
same,Velvetleaf plant response rating,velvetleaf; [8],0
same,Velvetleaf plant response rating,velvetleaf; [1],6
same,"Plant response rating, Velvetleaf",velvetleaf; [2],7
same,Velvetleaf plant response rating,velvetleaf; [3],1
same,Velvetleaf plant response rating,velvetleaf; [4],1
same,Velvetleaf plant response rating,velvetleaf; [5],1
same,"Plant response rating, Velvetleaf",velvetleaf; [6],1
same,Velvetleaf plant response rating,velvetleaf; [7],1
same,Soybean plant response rating,soybean; [8],0
same,Soybean plant response rating,soybean; [1],0
same,"Plant response rating, Soybean",soybean; [2],4
same,Soybean plant response rating,soybean; [3],3
same,Soybean plant response rating,soybean; [4],4
same,Soybean plant response rating,soybean; [5],0
same,"Plant response rating, Soybean",soybean; [6],6
same,Soybean plant response rating,soybean; [7],8
same,Redroot pigweed plant response rating,pigweed; [1],0
same,"Plant response rating, Redroot pigweed",pigweed; [2],5
same,Redroot pigweed plant response rating,pigweed; [3],1
same,Redroot pigweed plant response rating,pigweed; [4],2
same,Redroot pigweed plant response rating,pigweed; [5],0
same,"Plant response rating, Redroot pigweed",pigweed; [6],4
same,Redroot pigweed plant response rating,pigweed; [7],5
same,Cocklebur plant response rating,cocklebur; [8],0
same,Cocklebur plant response rating,cocklebur; [1],0
same,"Plant response rating, Cocklebur",cocklebur; [2],0
same,Cocklebur plant response rating,cocklebur; [3],0
same,Cocklebur plant response rating,cocklebur; [4],0
same,Cocklebur plant response rating,cocklebur; [5],0
same,"Plant response rating, Cocklebur",cocklebur; [6],1
same,Cocklebur plant response rating,cocklebur; [7],2
same,S. Flatsedge plant response rating,smallflower flatsedge; [9],0
same,S. Flatsedge plant response rating,smallflower flatsedge; [10],0
same,S. Flatsedge plant response rating,smallflower flatsedge; [11],0
same,S. Flatsedge plant response rating,smallflower flatsedge; [12],5
same,B. signalgrass plant response rating,surinam grass; [1],10
same,"Plant response rating, B. signalgrass",surinam grass; [2],10
same,B. signalgrass plant response rating,surinam grass; [3],0
same,B. signalgrass plant response rating,surinam grass; [4],0
same,B. signalgrass plant response rating,surinam grass; [5],9
same,"Plant response rating, B. signalgrass",surinam grass; [6],1
same,B. signalgrass plant response rating,surinam grass; [7],3
same,Wild oats plant response rating,wild oat; [1],7
same,"Plant response rating, Wild oats",wild oat; [2],8
same,Wild oats plant response rating,wild oat; [3],0
same,Wild oats plant response rating,wild oat; [4],0
same,"Plant response rating, Wild oats",wild oat; [6],0
same,Wild oats plant response rating,wild oat; [7],2
same,Rice plant response rating,rice; [9],0
same,Rice plant response rating,rice; [10],0
same,Rice plant response rating,rice; [11],0
same,Rice plant response rating,rice; [12],2
same,Giant foxtail plant response rating,giant foxtail; [8],10
same,Giant foxtail plant response rating,giant foxtail; [1],10
same,"Plant response rating, Giant foxtail",giant foxtail; [2],10
same,Giant foxtail plant response rating,giant foxtail; [3],2
same,Giant foxtail plant response rating,giant foxtail; [4],3
same,Giant foxtail plant response rating,giant foxtail; [5],10
same,"Plant response rating, Giant foxtail",giant foxtail; [6],4
same,Giant foxtail plant response rating,giant foxtail; [7],6
same,Bedstraw plant response rating,bedstraw; [1],0
same,"Plant response rating, Bedstraw",bedstraw; [2],2
same,Bedstraw plant response rating,bedstraw; [3],5
same,Bedstraw plant response rating,bedstraw; [4],6
same,Bedstraw plant response rating,bedstraw; [5],0
same,"Plant response rating, Bedstraw",bedstraw; [6],8
same,Bedstraw plant response rating,bedstraw; [7],8
same,Blackgrass plant response rating,blackgrass; [1],10
same,"Plant response rating, Blackgrass",blackgrass; [2],10
same,Blackgrass plant response rating,blackgrass; [3],2
same,Blackgrass plant response rating,blackgrass; [4],8
same,Blackgrass plant response rating,blackgrass; [5],9
same,"Plant response rating, Blackgrass",blackgrass; [6],8
same,Blackgrass plant response rating,blackgrass; [7],8
same,Barnyardgrass plant response rating,bamyardgrass; [9],2
same,Barnyardgrass plant response rating,bamyardgrass; [10],2
same,Barnyardgrass plant response rating,bamyardgrass; [11],1
same,Barnyardgrass plant response rating,bamyardgrass; [12],9
same,Crabgrass plant response rating,crabgrass; [8],4
same,Crabgrass plant response rating,crabgrass; [1],9
same,"Plant response rating, Crabgrass",crabgrass; [2],10
same,Crabgrass plant response rating,crabgrass; [3],1
same,Crabgrass plant response rating,crabgrass; [4],2
same,Crabgrass plant response rating,crabgrass; [5],4
same,"Plant response rating, Crabgrass",crabgrass; [6],5
same,Crabgrass plant response rating,crabgrass; [7],6
same,Corn plant response rating,corn; [8],0
same,Corn plant response rating,corn; [1],0
same,"Plant response rating, Corn",corn; [2],3
same,Corn plant response rating,corn; [3],0
same,Corn plant response rating,corn; [4],0
same,Corn plant response rating,corn; [5],0
same,"Plant response rating, Corn",corn; [6],0
same,Corn plant response rating,corn; [7],0
